The subject of one assay is HCV replicon genotype 1b. Put plainly: HCV replicon assay, genotype 1b (cell ELISA for replicon-encoded NS3/4A). Format: cell-based, hepatitis C virus (HCV). The settings on record: for IC50: Hepatitis C virus, 96 h, read-out: 1b IC50 (nM), genotype 1b replicon cells, 96 hours incubation, NS3/4A ELISA readout, % of DMSO control; for pIC50: read-out: 1b IC50, genotype 1b replicon cells, 96 hours incubation, NS3/4A ELISA readout, % of DMSO control. A digest of the protocol:
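Genotype 1b replicon cells (neomycin-selected, G418 removed for assay) incubated 96 h with compound dilution series. Replication measured by cell ELISA for replicon-encoded NS3/4A after lysis; IC50 from four-parameter fit relative to DMSO control.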
In general terms: A replicon is a self-replicating genome or part of one, used to study replication in cells.

The next assay has as its system HCV replicon genotype 1a. Put plainly: HCV replicon assay, genotype 1a (cell ELISA for replicon-encoded NS3/4A). Type of assay: cell-based, hepatitis C virus (HCV). The settings on record: for IC50: Hepatitis C virus, 96 h, read-out: 1a IC50 (nM), genotype 1a replicon cells, 96 hours incubation, NS3/4A ELISA readout, % of DMSO control; for pIC50: read-out: 1a IC50, genotype 1a replicon cells, 96 hours incubation, NS3/4A ELISA readout, % of DMSO control. Summed up:
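Stable G418-selected neomycin-resistant HCV replicon cells were plated with serially diluted compound without G418 and incubated 96 h. After washing and lysis, replicon RNA was measured indirectly by cell ELISA for replicon-encoded NS3/4A; IC50 from four-parameter fit relative to DMSO control.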

pIC50: −log10 of the molar value. Read-outs that look alike come from different tables or passages of the source.

As for `CNC(=O)c1c(-c2ccc(F)cc2)oc2cc(N(C)S(C)(=O)=O)c(-c3ccc4c(n3)-c3cc5c(F)cccc5n3C(C)N4)cc12` (centres unmarked) [Example 61, 5-(11-fluoro-6-methyl-5,6-dihydropyrido[3′,2′:4,5]pyrimido[1,6-a]indol-2-yl)-2-(4-fluorophenyl)-N-methyl-6-(N-methylmethylsulfonamido)benzofuran-3-carboxamide], the IC50 with HCV replicon genotype 1b was 3.01 nM; in the assay on HCV replicon genotype 1a, 2.6 nM.
Regarding `CNC(=O)c1c(-c2ccc(F)cc2)oc2cc(N(C)S(C)(=O)=O)c(-c3ccc4ncn5c6cccc(F)c6cc5c4n3)cc12` [Example 55, 2-(4-fluorophenyl)-5-(11-fluoropyrido[3′,2′:4,5]pyrimido[1,6-a]indol-2-yl)-N-methyl-6-(N-methylmethylsulfonamido)benzofuran-3-carboxamide], the negative logarithm of the IC50 (pIC50) (as a rule, the IC50 on a negative log10 scale, so that one unit is a factor of ten) in the assay on HCV replicon genotype 1b was 8.70; in the assay with HCV replicon genotype 1a, 8.81.
With `CNC(=O)c1c(-c2ccc(F)cc2)oc2cc(N(C)S(C)(=O)=O)c(-c3ccc4nc(CCN5CC(F)C5)n5c6cccc(F)c6cc5c4n3)cc12` [Example 54, 5-(11-fluoro-6-(2-(3-fluoroazetidin-1-yl)ethyl)pyrido[3′,2′:4,5]pyrimido[1,6-a]indol-2-yl)-2-(4-fluorophenyl)-N-methyl-6-(N-methylmethylsulfonamido)benzofuran-3-carboxamide], the IC50 in the assay on HCV replicon genotype 1b is 4.86 nM; with HCV replicon genotype 1a it was 2.14 nM.
For `CNC(=O)c1c(-c2ccc(F)cc2)oc2cc(N(C)S(C)(=O)=O)c(-c3ccc4nc(CN5CC(CC(F)(F)F)C5)n5c6cccc(C#N)c6cc5c4n3)cc12` [Example 136], in that order: 10.6 nM and 6.6 nM.
For `CNC(=O)c1c(-c2ccc(F)cc2)oc2cc(N(C)S(C)(=O)=O)c(-c3ccc4nc(CN5CC[C@H](F)C5)n5c6cccc(F)c6cc5c4n3)cc12` [Example 86], the IC50 was 2.66 nM in the assay with HCV replicon genotype 1b and 1.99 nM in the assay on HCV replicon genotype 1a.
As to `CNC(=O)c1c(-c2ccc(OC)nc2)oc2cc(N(C)S(C)(=O)=O)c(-c3ccc4nc(CN5CC(F)C5)n5c6cccc(F)c6cc5c4n3)cc12` [Example 34], the IC50 came out at 4.66 nM with HCV replicon genotype 1b and 2.43 nM in the assay with HCV replicon genotype 1a.
For `CNC(=O)c1c(-c2ccc(F)cc2)oc2cc(N(C)S(C)(=O)=O)c(-c3ccc4nc(CN5CCC5)n5c6cccc(F)c6cc5c4n3)cc12` [Example 84], in that order: 1.96 nM and 1.34 nM.
For the compound `CNC(=O)c1c(-c2ccc(F)cc2)oc2cc(N(C)S(C)(=O)=O)c(-c3ccc4nc(CN5CC[C@@H](F)C5)n5c6cccc(F)c6cc5c4n3)cc12` [Example 85], the IC50 turned out to be 2.34 nM in the assay with HCV replicon genotype 1b and 1.76 nM in the assay on HCV replicon genotype 1a.
For `CNC(=O)c1c(-c2ccc(F)cc2F)oc2cc(N(C)S(C)(=O)=O)c(-c3ccc4ncn5c6cccc(F)c6cc5c4n3)cc12` [Example 9, 2-(2,4-difluorophenyl)-5-(11-fluoropyrido[3′,2′:4,5]pyrimido[1,6-a]indol-2-yl)-N-methyl-6-(N-methylmethylsulfonamido)benzofuran-3-carboxamide], the figures for the IC50 with HCV replicon genotype 1b and with HCV replicon genotype 1a were 1.99 nM and 1.16 nM, respectively.
In the same order, the values of `CNC(=O)c1c(-c2ccc(F)cc2)oc2cc(N(C)S(C)(=O)=O)c(-c3ccc4nc(CN5CC(OC)C5)n5c6cccc(F)c6cc5c4n3)cc12` [Example 88] are 4.22 nM and 4.09 nM.
`CNC(=O)c1c(-c2ccc(F)cc2)oc2cc(N(C)S(C)(=O)=O)c(-c3ccc4nc(CCN5CC(F)C5)c5c([nH]c6cccc(F)c65)c4n3)cc12` [54′, 5-(7-fluoro-6-(2-(3-fluoroazetidin-1-yl)ethyl)-11H-indolo[3,2-c][1,5]naphthyridin-2-yl)-2-(4-fluorophenyl)-N-methyl-6-(N-methylmethylsulfonamido)benzofuran-3-carboxamide]: the IC50 in the assay with HCV replicon genotype 1b is 4.24 nM; in the assay on HCV replicon genotype 1a, 4.17 nM.
For `CNC(=O)c1c(-c2ccc(F)cc2F)oc2cc(N(C)S(C)(=O)=O)c(-c3ccc4nc(CN5CC(F)(F)C5)n5c6cccc(F)c6cc5c4n3)cc12` [Example 48], in that order: 3.04 nM and 2.82 nM.
Take `CNC(=O)c1c(-c2ccc(F)cc2)oc2cc(N(C)S(C)(=O)=O)c(-c3ccc4nc(Cn5cncn5)n5c6cccc(F)c6cc5c4n3)cc12` [Example 116]: the IC50 was 1.7 nM in the assay on HCV replicon genotype 1b and 1.88 nM in the assay on HCV replicon genotype 1a.
With `CNC(=O)c1c(-c2ccc(F)cc2)oc2cc(N(C)S(C)(=O)=O)c(-c3ccc4nc(C(=O)OC)n5c6cccc(F)c6cc5c4n3)cc12` [Example 62, methyl 11-fluoro-2-(2-(4-fluorophenyl)-3-(methylcarbamoyl)-6-(N-methylmethylsulfonamido)benzofuran-5-yl)pyrido[3′,2′:4,5]pyrimido[1,6-a]indole-6-carboxylate], the results for the IC50 with HCV replicon genotype 1b and in the assay with HCV replicon genotype 1a were 12.2 nM and 8.67 nM, respectively.
As to `CNC(=O)c1c(-c2ccc(F)cc2)oc2cc(N(C)S(C)(=O)=O)c(-c3ccc4nc(CN5CC(OC)C5)n5c6cccc(C#N)c6cc5c4n3)cc12` [Example 125], the IC50 with HCV replicon genotype 1b was determined as 3.21 nM; in the assay on HCV replicon genotype 1a, 2.32 nM.
As for `CNC(=O)c1c(-c2ccc(F)cc2)oc2cc(N(C)S(C)(=O)=O)c(-c3ccc4nc(CN5CC(C)(OC)C5)n5c6cccc(F)c6cc5c4n3)cc12` [Example 104], the IC50 was 5.23 nM in the assay with HCV replicon genotype 1b and 2.31 nM with HCV replicon genotype 1a.
For `CNC(=O)c1c(-n2ccccc2=O)oc2cc(N(C)S(C)(=O)=O)c(-c3ccc4nc(CN5CC(F)C5)n5c6cccc(F)c6cc5c4n3)cc12` [Example 29], in that order: 3.63 nM and 2.21 nM.
In the case of `CNC(=O)c1c(C(=O)N2CCC2(C)C)oc2cc(N(C)S(C)(=O)=O)c(-c3ccc4ncn5c6cccc(F)c6cc5c4n3)cc12` [Example 52], the IC50 was found to be 120 nM with HCV replicon genotype 1b and 260 nM with HCV replicon genotype 1a.
In the same order, the values of `CNC(=O)c1c(-n2cnc(C)n2)oc2cc(N(C)S(C)(=O)=O)c(-c3ccc4ncn5c6cccc(F)c6cc5c4n3)cc12` [Example 13] are 99.5 nM and 298 nM.
`CNC(=O)c1c(-c2ccc(F)cc2F)oc2cc(N(C)S(C)(=O)=O)c(-c3ccc4nc(CN5CCN(C)CC5)n5c6cccc(F)c6cc5c4n3)cc12` [Example 147]: the IC50 was 3.99 nM in the assay on HCV replicon genotype 1b and 3.48 nM in the assay with HCV replicon genotype 1a.
For `CNC(=O)c1c(-c2ccc(F)cc2)oc2cc(N(C)S(C)(=O)=O)c(-c3ccc4nc(CN5CC(F)(F)C5)n5c6cccc(F)c6cc5c4n3)cc12` [Example 80], in that order: 2.46 nM and 2.65 nM.
For `CNC(=O)c1c(-c2ccc(F)cc2)oc2cc(N(C)S(C)(=O)=O)c(-c3ccc4[nH]c(=O)n5c6cccc(F)c6cc5c4n3)cc12` [Example 22], in that order: 3.42 nM and 4.34 nM.
As to `CNC(=O)c1c(C2CC2)oc2cc(N(C)S(C)(=O)=O)c(-c3ccc4nc(CN5CC(F)C5)n5c6cccc(F)c6cc5c4n3)cc12` [Example 151], the IC50 in the assay with HCV replicon genotype 1b was found to be 3.43 nM; in the assay with HCV replicon genotype 1a, 2.66 nM.
As for `CNC(=O)c1c(-c2ccc(F)cc2)oc2cc(N(C)S(C)(=O)=O)c(-c3ccc4c(n3)-c3cc5c(F)cccc5n3CN4)cc12` [Example 56, 5-(11-fluoro-5,6-dihydropyrido[3′,2′:4,5]pyrimido[1,6-a]indol-2-yl)-2-(4-fluorophenyl)-N-methyl-6-(N-methylmethylsulfonamido)benzofuran-3-carboxamide], the IC50 in the assay on HCV replicon genotype 1b stood at 5.32 nM; with HCV replicon genotype 1a, 5.26 nM.
Take `CNC(=O)c1c(C2CC2)oc2cc(N(C)S(C)(=O)=O)c(-c3ccc4nc(CN5CC(F)C5)n5c6cccc(F)c6cc5c4n3)cc12` [Example 33]: the pIC50 is 8.59 in the assay with HCV replicon genotype 1b and 8.63 in the assay with HCV replicon genotype 1a.
Consider `CNC(=O)c1c(-c2ccc(F)cc2)oc2cc(N(C)S(C)(=O)=O)c(-c3ccc4nc(CN5CC(F)(C#N)C5)n5c6cccc(F)c6cc5c4n3)cc12` [Example 110], for which the figures for the IC50 in the assay on HCV replicon genotype 1b and with HCV replicon genotype 1a were 5.51 nM and 4.04 nM, respectively.
For `CNC(=O)c1c(-n2ccccc2=O)oc2cc(N(C)S(C)(=O)=O)c(-c3ccc4ncn5c6cccc(F)c6cc5c4n3)cc12` [Example 11, 5-(11-fluoropyrido[3′,2′:4,5]pyrimido[1,6-a]indol-2-yl)-N-methyl-6-(N-methylmethylsulfonamido)-2-(2-oxopyridin-1(2H)-yl)benzofuran-3-carboxamide], in that order: 2.26 nM and 2.03 nM.
For `CNC(=O)c1c(-c2ccc(F)cc2F)oc2cc(N(C)S(C)(=O)=O)c(-c3ccc4nc(CN5CCC[C@@H]5C(F)(F)F)n5c6cccc(F)c6cc5c4n3)cc12` [Example 144], in that order: 14.6 nM and 13.3 nM.
In the same order, the values of `CNC(=O)c1c(-c2ccc(F)cc2F)oc2cc(N(C)S(C)(=O)=O)c(-c3ccc4nc(CN5CCC(F)(F)C5)n5c6cccc(F)c6cc5c4n3)cc12` [Example 46] are 11.3 nM and 7.76 nM.
For the compound `CNC(=O)c1c(-c2ccc(F)cc2F)oc2cc(N(C)S(C)(=O)=O)c(-c3ccc4nc(CN5CC(C(C)(C)O)C5)n5c6cccc(F)c6cc5c4n3)cc12` [Example 143], the IC50 was found to be 6.21 nM with HCV replicon genotype 1b and 5.17 nM with HCV replicon genotype 1a.
In the same order, the values of `CNC(=O)c1c(-c2ccc(OC(F)F)nc2)oc2cc(N(C)S(C)(=O)=O)c(-c3cc4c(cn3)ncn3c5cccc(F)c5cc43)cc12` [Example 18] are 1.86 nM and 1.06 nM.

The values are drawn from US9493461B2, “Tetracyclic heterocycle compounds and methods of use thereof for the treatment of hepatitis C” (priority 2013, dated 2016).
